From patent US10030016B2 (Sunesis Pharmaceuticals, Inc., priority 2009, dated 2018)
Structures can show the parent of a compound that is named as a salt. Where two headings read alike, the source gives them in different places.

What was measured:
PDK1 = PDK1 (Homo sapiens (Human), UniProt O15530); experiment: PDK1 kinase assay (coupled PDK1/AKT/FAM-crosstide assay, IMAP fluorescence polarization); assay type: biochemical
Method in brief: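 Coupled cascade: 0.75 nM PDK1 (51-359) → 10 nM AKT2 (140-467-PIFtide) → 100 nM FAM-crosstide. ATP 40 μM, 25° C, 30 min. IMAP FP (ex 485/em 530), 2 h binding. ΔmP vs conc, 4-param fit.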

[1] = test system: phospho-akt (Thr308) in PC-3 cells; experiment: Inhibition of phospho-akt (Thr308) in PC-3 cells, MSD phospho-akt 308 ELISA kit; assay type: cell-based; conditions: Homo sapiens, 2 hours, no serum, read-out: EC50
Method in brief: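 PC-3 cells (15,000/well, overnight in 10% FBS medium) treated 2 h with three-fold diluted compounds in serum-free medium; DMSO high and 5 μM wortmannin low controls. Lysates captured on BSA-blocked MSD plates overnight at 4 °C, then 1 h antibody detection at RT; phospho-Akt Thr308 read by MSD electrochemiluminescence.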

[2] = inhibition of P308 Akt in PC-3 cells using MSD
[3] = inhibition of phospo-PDK1 in vitro
[4] = inhibition of P308 Akt in PC-3 cells, MSD

Chain of PDK1 (O15530 51-359): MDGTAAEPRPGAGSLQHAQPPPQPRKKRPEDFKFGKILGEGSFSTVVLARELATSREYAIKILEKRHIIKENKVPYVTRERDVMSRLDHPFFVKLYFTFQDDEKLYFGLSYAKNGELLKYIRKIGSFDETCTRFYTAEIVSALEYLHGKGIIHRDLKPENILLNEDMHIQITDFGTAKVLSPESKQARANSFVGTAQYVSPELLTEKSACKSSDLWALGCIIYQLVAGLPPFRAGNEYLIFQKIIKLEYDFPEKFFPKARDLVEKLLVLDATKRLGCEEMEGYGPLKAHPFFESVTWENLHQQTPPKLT

Row | Compound | IC50 (PDK1; inhibition of PDK1 in vitro) [µM] | EC50 [1, 2] [µM] | IC50 (PDK1; [3]) [µM] | EC50 [1, 4] [µM] | EC50 ([1]; PC-3, 2 h, inhibition of P308 Akt in PC-3 cells using MSD) [µM]
1 | Nc1n[nH]c2ncc(-c3ccc(CNc4ncc(C(F)(F)F)cc4C(=O)N[C@@H](CO)c4ccc(Br)cc4)cc3)cc12 [Example 283, (R)-2-(4-(3-amino-1H-pyrazolo [3,4-b]pyridin-5-yl)benzylamino)-N-(1-(4-bromophenyl)-2-hydroxyethyl)-5-(trifluoromethyl)nicotinamide] | > 5 | 1 to 10 | – | – | –
2 | CC(C)[C@H](NC(=O)c1cccnc1NCc1ccc(-c2ccc3ncnc(N)c3c2)s1)c1cccc(F)c1 [Example 3.44, (S)-2-((5-(4-aminoquinazolin-6-yl)thiophen-2-yl)methylamino)-N-(1-(3-fluorophenyl)-2-methylpropyl)nicotinamide (TFA salt)] | – | – | 0.1 to 1 | 1 to 10 | –
3 | Cc1nc2cnc3ccc(-c4ccc(CNc5ncccc5C(=O)N[C@@H](C)c5ccc(F)cc5)s4)cc3c2n1C [Example 2.19, (S)-2-(((5-(1,2-dimethyl-1H-imidazo[4,5-c]quinolin-8-yl)thiophen-2-yl)methyl)amino) N-(1-(4-fluorophenyl)ethyl) nicotinamide] | – | – | 0.1 to 1 | < 1 | –
4 | C[C@@H](Nc1ncc(C(F)(F)F)cc1C(=O)Nc1ccc(F)cc1)c1ccc(-c2cnc3[nH]nc(N)c3n2)cc1 [Example 412, 2-{(R)-1-[4-(3-Amino-1H-pyrazolo[3,4-b]pyrazin-5-yl)-phenyl]-ethylamino}-N-(4-fluoro-phenyl)-5-trifluoromethyl-nicotinamide] | < 0.1 | 1 to 10 | – | – | –
5 | C[C@H](NC(=O)c1cc(C(F)(F)F)cnc1NCc1ccc(-c2cnc3[nH]nc(N)c3c2)cc1)c1ccc(Br)cc1 [Example 282, (S)-2-(4-(3-amino-1H-pyrazolo [3,4-b]pyridin-5-yl)benzylamino)-N-(1-(4-bromophenyl)ethyl)-5-(trifluoromethyl)nicotinamide] | < 0.1 | 1 to 10 | – | – | –
6 | CNC(=O)c1nc(-c2ccc(CNc3ncc(C#N)cc3C(=O)N[C@@H](C)c3ccc(F)cc3)cc2)cnc1N [Example 216, (S)-3-amino-6-(4-((5-cyano-3-(1-(4-fluorophenyl)ethylcarbamoyl)pyridin-2-ylamino)methyl)phenyl)-N-methylpyrazine-2-carboxamide] | < 0.1 | < 1 | – | – | –
7 | CCCS(=O)(=O)Nc1cnc(NCc2ccc(-c3ccc4ncnc(N)c4c3)s2)c(C(=O)NCc2ccc(F)c(F)c2)c1 [Example 8.6.4] | – | – | 1 to 5 | 1 to 10 | –
8 | C[C@H](NC(=O)c1nccnc1NC/C=C/c1ccc2c(c1)NC(=O)/C2=C\c1cnc[nH]1)c1ccc(F)cc1 [Example 15.20, 3-((E)-3-((Z)-3-((1H-imidazol-5-yl)methylene)-2-oxoindolin-6-yl)allylamino)-N-((S)-1-(4-fluorophenyl)ethyl) pyrazine-2-carboxamide] | – | – | < 0.1 | < 1 | –
9 | CNS(=O)(=O)c1cnc(NCc2ccc(-c3ccc4ncnc(N)c4c3)s2)c(C(=O)N[C@@H](C)c2ccc(F)cc2)c1 [Example 8.7.7, 2-({[5-(4-aminoquinazolin-6-yl)thiophen-2-yl]methyl}amino)-N-[(1S)-1-(4-fluorophenyl)ethyl]-5-(methylsulfamoyl) pyridine-3-carboxamide] | – | – | 0.1 to 1 | 1 to 10 | –
10 | C[C@H](NC(=O)c1cc(C#N)cnc1NCc1ccc(-c2cnc(N)c(CCCN3CCOCC3)n2)cc1)c1ccc(F)cc1 [Example 88, 2-{4-[5-Amino-6-(3-morpholin-4-yl-propyl)-pyrazin-2-yl]-benzyl-amino}-5-cyano-N-[(S)-1-(4-fluoro-phenyl)-ethyl]-nicotinamide] | < 0.1 | < 1 | – | – | –
11 | O=C(NCc1ccc(F)c(F)c1)c1ccccc1NCc1cccc(-c2c[nH]c3ncccc23)c1 [Example 1.20, 2-(3-(1H-pyrrolo[2,3-b]pyridin-3-yl)benzylamino)-N-(3,4-difluorobenzyl)benzamide] | – | – | < 0.1 | 1 to 10 | –
12 | C[C@H](NC(=O)c1cc(C#N)cnc1N[C@H](C)c1ccc(-c2cnc3[nH]nc(N)c3c2)cc1)c1ccc(F)cc1 [Example 423, 2-{(R)-1-[4-(3-Amino-1H-pyrazolo[3,4-b]pyridin-5-yl)-phenyl]-ethylamino}-5-cyano-N-[(S)-1-(4-fluoro-phenyl)-ethyl]-nicotinamide] | < 0.1 | < 1 | – | – | –
13 | C[C@H](NC(=O)c1cc(C#N)cnc1NCc1ccc(-c2cnc(N)c(-c3cccc(O)c3)n2)cc1)c1ccc(F)cc1 [Example 234, 2-{4-[5-Amino-6-(3-hydroxy-phenyl)-pyrazin-2-yl]-benzylamino}-5-cyano-N-[(S)-1-(4-fluoro-phenyl)-ethyl]-nicotinamide] | < 0.1 | – | – | – | 1 to 10
14 | C[C@H](NC(=O)c1nc(C#N)cnc1N[C@H](C)c1ccc(-c2c[nH]c3ncnc(N)c23)cc1)c1ccc(F)c(F)c1 [Example 402, 3-((R)-1-(4-(4-amino-7H-pyrrolo[2,3-d]pyrimidin-5-yl)phenyl)ethylamino)-6-cyano-N-((S)-1-(3,4-difluorophenyl)ethyl)pyrazine-2-carboxamide] | < 0.1 | < 1 | – | – | –
15 | CC(C)NC(=O)c1cccnc1NCc1cccc(-c2c[nH]c3ncccc23)c1 [Example 1.10, N-(propan-2-yl)-2-{[3-(1H-pyrrolo [2,3-b]pyridin-3-yl)benzyl]amino} pyridine-3-carboxamide] | – | – | > 5 | 1 to 10 | –
16 | COc1cccc(NC(=O)c2cc(C(F)(F)F)cnc2NCc2ccc(-c3cnc4[nH]nc(N)c4c3)cc2)c1 [Example 301, 2-(4-(3-amino-1H-pyrazolo [3,4-b]pyridin-5-yl)benzylamino)-N-(3-methoxyphenyl)-5-(trifluoromethyl)nicotinamide] | < 0.1 | 1 to 10 | – | – | –
17 | COc1cc(F)ccc1NC(=O)c1cc(C(F)(F)F)cnc1NCc1ccc(-c2cnc3[nH]nc(N)c3c2)cc1 [Example 261, 2-(4-(3-amino-1H-pyrazolo [3,4-b]pyridin-5-yl)benzylamino)-N-(4-fluoro-2-methoxyphenyl)-5-(trifluoromethyl)nicotinamide] | < 0.1 | 1 to 10 | – | – | –
18 | COCCCNc1cnc(-c2ccc(CNc3ncc(C#N)cc3C(=O)N[C@@H](C)c3ccc(F)cc3)cc2)cn1 [Example 228, 5-Cyano-N-[(S)-1-(4-fluoro-phenyl)-ethyl]-2-{4-[5-(3-methoxy-propylamino)-pyrazin-2-yl]-benzylamino}-nicotinamide] | 1 to 5 | > 10 | – | – | –
19 | Nc1ncc(-c2ccc(CNc3ncc(C(F)(F)F)cc3C(=O)Nc3ccc(F)cc3)cc2)nc1CC1CCNC1 (stereo not drawn) [Example 186, 2-[4-(5-Amino-6-pyrrolidin-3-ylmethyl-pyrazin-2-yl)-benzylamino]-N-(4-fluoro-phenyl)-5-trifluoromethyl-nicotinamide] | < 0.1 | < 1 | – | – | –
20 | COc1cc2ncnc(-c3ccc(CNc4ncccc4C(=O)N[C@@H](C)c4ccc(F)cc4)s3)c2cc1OC [Example 2.12, (S)-2-(((5-(6,7-dimethoxyquinazolin-4-yl)thiophen-2-yl)methyl)amino)-N-(1-(4-fluorophenyl)ethyl) nicotinamide] | – | – | > 5 | 1 to 10 | –
21 | Nc1n[nH]c2ncc(-c3ccc(CNc4ncc(C(F)(F)F)cc4C(=O)NCc4ccc(Cl)cc4)cc3)cc12 [Example 279, 2-(4-(3-amino-1H-pyrazolo [3,4-b]pyridin-5-yl)benzylamino)-N-(4-chlorobenzyl)-5-(trifluoromethyl)nicotinamide] | < 0.1 | < 1 | – | – | –
22 | CCCNC(=O)c1cccnc1NCc1cccc(-c2c[nH]c3ncccc23)c1 [Example 1.9, N-propyl-2-{[3-(1H-pyrrolo[2,3-b]pyridin-3-yl)benzyl]amino}pyridine-3-carboxamide] | – | – | > 5 | 1 to 10 | –
23 | Cc1ccc(Nc2ncccc2C(=O)NCc2ccc(F)c(F)c2)cc1-c1ccc2c(c1)CNC2=O [Example 17.2] | – | – | > 5 | > 10 | –
24 | O=C(NCc1ccc(F)cc1)c1cccnc1NCc1ccc(-c2cnc3[nH]ncc3c2)cc1 [Example 393, 2-(4-(1H-pyrazolo[3,4-b]pyridin-5-yl)benzylamino)-N-(4-fluorobenzyl) nicotinamide] | < 0.1 | 1 to 10 | – | – | –
25 | CC(C)Oc1cc(CNc2ncccc2C(=O)N(C)C2CCCCC2)cc(-c2c[nH]c3ncc(C(=O)NC4CC4)cc23)c1 [Example 4.1.6, 3-{3-[({3-[cyclohexyl(methyl)carbamoyl]pyridin-2-yl}amino)methyl]-5-(propan-2-yloxy)phenyl}-N-cyclopropyl-1H-pyrrolo[2,3-b]pyridine-5-carboxamide] | – | – | > 5 | > 10 | –
26 | C[C@H](NC(=O)c1cc(C#N)cnc1NCc1ccc(-c2ccc3ncnc(N)c3c2)s1)c1ccc(F)cc1 [Example 8.8.3, 2-({[5-(4-aminoquinazolin-6-yl)thiophen-2-yl]methyl}amino)-5-cyano-N-[(1S)-1-(4-fluorophenyl)ethyl] pyridine-3-carboxamide] | – | – | < 0.1 | < 1 | –
27 | C[C@H](NC(=O)c1cccnc1NCc1ccc(-c2ccc3ncc(-n4cccn4)nc3c2)s1)c1ccc(F)c(F)c1 [Example 4.26, (S)-2-(((5-(3-(1H-pyrazol-1-yl)quinoxalin-6-yl)thiophen-2-yl)methyl)amino)-N-(1-(3,4-difluorophenyl)ethyl)nicotinamide] | – | – | > 5 | > 10 | –
